# In US8486930B2, “Salts” (Novartis AG, priority 2008, dated 2013):
# Structures can show the parent of a compound that is named as a salt.
# Columns and labels:
# Assay type in all cases: physicochemical
# [1] = Hygroscopy by exposure to an atmosphere of 95% RH
# Procedure: Crystalline forms A of the hydrochloride and tartrate salts of Compound I were prepared according to the methodology described in Examples 1 and 4.
# The samples were tested for hygroscopy by exposure to an atmosphere of 95% RH.
# [2] = Temperature stability, solid state, 1 week 80° C./75% relative humidity; details: for Decomposition products (%) / Discoloration / Change in XRPD: 1 week 80° C./75% relative humidity; for Change in XRPD: Bulk (XRPD)
# Procedure: (§1) Crystalline forms A of the hydrochloride and tartrate salts of Compound I were prepared according to the methodology described in Examples 1 and 4. Stability against temperature and light were then measured as described below.
# (§2) Temperature stability was tested by measuring decomposition and colour change caused by placing the samples in an airtight container for 1 week at 80° C. (in bulk form and as a 1% component in two mixtures) and in an identical container for 1 week at 80° C. and at a relative humidity of 75%. Where a change in XRPD was observed, the temperature of the phase transition was measured using differential scanning […] (DSC).
# [3] = Temperature stability, solid state, 1 week 80° C., tight container; details: for resistance to decomposition at elevated temperatures: summary of Table 5
# Procedure: as §1, §2
# [4] = Light stability, Xenon light approx. 1200 kLuxh; details: for Decomposition products (%): Bulk (HPLC); for Change in XRPD: Bulk (XRPD)
# Procedure: as §1
# Light stability was tested by measuring decomposition and colour change following exposure to the sample to 1200 kiloLuxhours from a Xenon light.
# [5] = 1% in mixture of Lactose 200 mesh (78.5%), corn starch (20%), aerosil 200 (0.5%), magnesium stearate (1%)
# [6] = 1% in mixture of Mannitol 60 (50%), avicel PH 101 (43%), crospovidone (5%), aerosil (1%), magnesium stearate (1%)
# [7] = 1 week 80° C., tight container, 1% in mixture of Lactose 200 mesh (78.5%), corn starch (20%), aerosil 200 (0.5%), magnesium stearate (1%)
# [8] = 1 week 80° C., tight container, 1% in mixture of Mannitol 60 (50%), avicel PH 101 (43%), crospovidone (5%), aerosil (1%), magnesium stearate (1%)
# [9] = Solid state, 1 week 80° C., tight container, Bulk (HPLC)
# [10] = Solid state, 1 week 80° C., tight container, Bulk (XRPD, DSC)
SMILES,hygroscopy [1],moisture uptake [1] [%],"Decomposition products (%) [2, 5] [%]","Discoloration [2, 5]","Decomposition products (%) [2, 6] [%]","Discoloration [2, 6]","Discoloration ([2]; Solid state, Bulk)","Decomposition products (%) ([2]; Solid state, Bulk (HPLC))",Change in XRPD ([2]; Solid state),"Decomposition products (%) [3, 7] [%]","Decomposition products (%) [3, 8] [%]","Decomposition products (%) [3, 9] [%]","Change in XRPD [3, 10]",Decomposition products (%) ([3]; Unstressed (1 week)),resistance to decomposition at elevated temperatures [3],Decomposition products (%) [4] [%],Change in XRPD [4],further results
"CCc1cc(/C(C)=N/OCc2ccc(C3CCCCC3)c(C(F)(F)F)c2)ccc1CN1CC(C(=O)O)C1 [Form A of hydrochloride salt, 1-(4-{1-[(E)-4-Cyclohexyl-3-trifluoromethyl-benzyloxyimino]-ethyl}-2-ethyl-benzyl)-azetidine-3-carboxylic acid]",low hygroscopy,0.61,95.2,Strong,95.8,Strong,Strong,91.5,Melted glass,94.8,92.7,11.5,No change,1.1,good resistance to decomposition,1.1,No change,"Discoloration [3, 7]: Strong; Discoloration [3, 8]: Strong"
"CCc1cc(/C(C)=N/OCc2ccc(C3CCCCC3)c(C(F)(F)F)c2)ccc1CN1CC(C(=O)O)C1 [Form A of tartrate salt, 1-(4-{1-[(E)-4-Cyclohexyl-3-trifluoromethyl-benzyloxyimino]-ethyl}-2-ethyl-benzyl)-azetidine-3-carboxylic acid]",slightly hygroscopic,2.49,70.9,Strong,93.2,Medium,Strong,18.0,Melted glass,23.8,37.0,8.8,Changed,0.8,good resistance to decomposition,0.8,No change,"resistance to decomposition under conditions of high humidity and when mixed with representative pharmaceutical compositions ([2]; summary of Table 5, compared with the hydrochloride form): superior resistance to decomposition; temperature of the phase transition (DSC) ([3]; Solid state, 1 week 80° C., tight container, Bulk (XRPD, DSC), measured where XRPD changed): 136.3 °C"
